Data published in patent publication US9669003B2, “Use of flavone and flavanone derivatives in preparation of sedative and hypnotic drugs” (priority 2012, dated 2017).
Marks after values point to notes of the source that are not given here.

Tests used:
Format in all cases: in vivo
Kunming mice [1] = test: Influence on autonomic activity of normal mice (ZIL-2 mice autonomic activity meter, counts within 10 min); conditions: intragastric, x ± s; for Times of activities in 1 h after drug administration/10 min: 1 h after administration; for Times of activities in 2 h after drug administration/10 min: 2 h after administration; for Times of activities in 24 h after drug administration/10 min: 24 h after administration
Method in brief: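 Kunming mice (10 per group, half each sex) were dosed at 25, 50 or 100 mg/kg in 0.5% CMC-Na. Spontaneous activity counts over 10 min were recorded at 1 h, 2 h and 24 h post-dose. Groups were compared by ANOVA with Dunnett's test after Levene's check.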

Kunming mice [2] = test: Influence on hypnosis effect with pentobarbital sodium doses at the threshold (50 mg/kg i.p.); conditions: pentobarbital sodium 50 mg/kg i.p. 60 min later, x ± s, n = 10
Method in brief: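 Kunming mice (10/group, half each sex) received compound in 0.5% CMC-Na intragastrically at 25, 50 or 100 mg/kg; 60 min later given 0.3% sodium pentobarbital 50 mg/kg i.p. Sleep latency and duration recorded by loss of righting reflex over 1 min; ANOVA and χ2 for sleep incidence.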

Kunming mice [3] = test: Influence on hypnosis effect with pentobarbital sodium doses below the threshold (25 mg/kg i.p.); conditions: pentobarbital sodium 25 mg/kg i.p. 60 min later, sleep observed in 30 min, n = 10
Method in brief: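 Kunming mice (10 per group, half female) given single oral doses of 25, 50 or 100 mg/kg in 0.5% CMC-Na; 60 min later pentobarbital sodium 25 mg/kg i.p. Sleep (righting reflex lost >1 min) scored within 30 min as percentage asleep, χ2 test.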

[4] = 25 mg/kg intragastric single dose
[5] = 50 mg/kg intragastric single dose
[6] = 100 mg/kg intragastric single dose
[7] = test drug 25 mg/kg intragastric single dose
[8] = test drug 50 mg/kg intragastric single dose
[9] = test drug 100 mg/kg intragastric single dose

| Structure (SMILES) | Times of activities in 1 h after drug administration/10 min (Kunming mice [1]; 25 mg/kg, n = 10) | Times of activities in 2 h after drug administration/10 min (Kunming mice [1]; 25 mg/kg, n = 10) | Times of activities in 24 h after drug administration/10 min (Kunming mice [1]; 25 mg/kg, n = 10) | Times of activities in 1 h after drug administration/10 min (Kunming mice [1]; 50 mg/kg, n = 10) | Times of activities in 2 h after drug administration/10 min (Kunming mice [1]; 50 mg/kg, n = 10) | Times of activities in 24 h after drug administration/10 min (Kunming mice [1]; 50 mg/kg, n = 10) | Times of activities in 1 h after drug administration/10 min (Kunming mice [1]; 100 mg/kg, n = 10) | Times of activities in 2 h after drug administration/10 min (Kunming mice [1]; 100 mg/kg, n = 10) | duration of sleep (Kunming mice [2]; [4]) | time to sleep (Kunming mice [2]; [4]) | duration of sleep (Kunming mice [2]; [5]) | time to sleep (Kunming mice [2]; [5]) | duration of sleep (Kunming mice [2]; [6]) | time to sleep (Kunming mice [2]; [6]) | Number of sleeping animals (Kunming mice [3]; [7]) | rate of sleeping (%) (Kunming mice [3]; [7]) | Number of sleeping animals (Kunming mice [3]; [8]) | rate of sleeping (%) (Kunming mice [3]; [8]) | Number of sleeping animals (Kunming mice [3]; [9]) | rate of sleeping (%) (Kunming mice [3]; [9]) | other results |
| --- | --- | --- | --- | --- | --- | --- | --- | --- | --- | --- | --- | --- | --- | --- | --- | --- | --- | --- | --- | --- | --- |
| Cc1cc(C2CC(=O)c3c(cccc3[N+](=O)[O-])O2)ccc1Oc1ccccc1 (stereo not drawn) [Example 63] | 250.6 ± 35.5 /10 min | 239.3 ± 34.6 /10 min | 269.5 ± 79.5 /10 min | 168.5 ± 53.0 /10 min | 151.3 ± 57.0 /10 min | 283.8 ± 79.3 /10 min | 124.5 ± 42.0 /10 min | 117.3 ± 54.8 /10 min | 47.87 ± 14.62 min | 3.43 ± 1.46 min | 62.64 ± 22.64 min | 3.09 ± 1.41 min | 87.42 ± 18.53 min | 2.33 ± 1.27 min | 6 | 60** % | 8 | 80*** % | 9 | 90*** % | Times of activities in 24 h after drug administration/10 min (Kunming mice [1]; 100 mg/kg, n = 10): 320.3 ± 76.0 /10 min |
| COc1ccc(C2CC(=O)c3c(O)c(OC)c(OC)c(OC)c3O2)cc1OC (stereo not drawn) [Example 64, 5-hydroxyl-6,7,8,3′,4′-penta methoxyl-flavanone] | – | – | – | – | – | – | – | – | 24.78 ± 24.51 min | 5.87 ± 2.32 min | 48.23 ± 24.48 min | 4.32 ± 1.29 min | 53.43 ± 21.81 min | 3.87 ± 2.43 min | 4 | 40* % | 7 | 70** % | 8 | 80*** % | Times of activities in 1 h after drug administration/10 min (Kunming mice [1]; 25 mg/kg, n = 10, 25 mg/kg): 323.9 ± 45.4 /10 min; Times of activities in 2 h after drug administration/10 min (Kunming mice [1]; 25 mg/kg, n = 10, 25 mg/kg): 310.9 ± 55.9 /10 min; Times of activities in 24 h after drug administration/10 min (Kunming mice [1]; 25 mg/kg, n = 10, 25 mg/kg): 331.3 ± 94.5 /10 min; Times of activities in 1 h after drug administration/10 min (Kunming mice [1]; 50 mg/kg, n = 10, 50 mg/kg): 283.8 ± 60.4 /10 min; Times of activities in 2 h after drug administration/10 min (Kunming mice [1]; 50 mg/kg, n = 10, 50 mg/kg): 269.7 ± 44.6 /10 min; Times of activities in 24 h after drug administration/10 min (Kunming mice [1]; 50 mg/kg, n = 10, 50 mg/kg): 313.6 ± 93.1 /10 min; Times of activities in 1 h after drug administration/10 min (Kunming mice [1]; 100 mg/kg, n = 10, 100 mg/kg): 239.4 ± 35.6 /10 min; Times of activities in 2 h after drug administration/10 min (Kunming mice [1]; 100 mg/kg, n = 10, 100 mg/kg): 248.2 ± 44.7 /10 min; Times of activities in 24 h after drug administration/10 min (Kunming mice [1]; 100 mg/kg, n = 10, 100 mg/kg): 300.1 ± 81.3 /10 min |
| COc1ccc(C2CC(=O)c3c(cc(OC)c(OC)c3OC)O2)cc1 (stereo not drawn) [Example 65, 5,6,7,4′-tetra methoxyl-flavanone] | 280.5 ± 47.4 /10 min | 279.4 ± 43.5 /10 min | 291.2 ± 83.6 /10 min | 174.3 ± 49.2 /10 min | 185.5 ± 56.6 /10 min | 289.0 ± 89.4 /10 min | 127.5 ± 36.5 /10 min | 132.6 ± 44.6 /10 min | 31.48 ± 22.67 min | 5.65 ± 1.83 min | 39.63 ± 20.19 min | 3.93 ± 1.39 min | 57.62 ± 24.57 min | 3.92 ± 1.40 min | 4 | 40* % | 6 | 60** % | 7 | 70** % | Times of activities in 24 h after drug administration/10 min (Kunming mice [1]; 100 mg/kg, n = 10): 280.7 ± 92.3 /10 min |
| COc1cc(OC)c2c(c1)OC(c1cc(OC)c(OC)c(OC)c1OC)CC2=O (stereo not drawn) [Example 66, 5,7,2′,3′,4′,5′-hexa methoxyl-flavanone] | 307.7 ± 54.6 /10 min | 281.3 ± 31.2 /10 min | 314.7 ± 66.7 /10 min | 275.8 ± 44.3 /10 min | 270.7 ± 46.3 /10 min | 314.1 ± 81.4 /10 min | 258.4 ± 40.3 /10 min | 243.9 ± 41.2 /10 min | 23.81 ± 25.29 min | 5.37 ± 2.12 min | 27.79 ± 26.78 min | 5.12 ± 2.65 min | 61.44 ± 47.33 min | 3.14 ± 1.10 min | 3 | 30% | 5 | 50** % | 8 | 80*** % | Times of activities in 24 h after drug administration/10 min (Kunming mice [1]; 100 mg/kg, n = 10): 334.7 ± 62.9 /10 min |
| COc1cc2c(c(OC)c1OC)OC(c1cc(OC)c(OC)c(OC)c1OC)CC2=O (stereo not drawn) [Example 67, 6,7,8,3′,4′,5′,6′-hepta methoxyl-flavanone] | 287.7 ± 45.4 /10 min | 312.5 ± 54.8 /10 min | 307.4 ± 77.0 /10 min | 247.2 ± 44.5 /10 min | 251.3 ± 38.8 /10 min | 314.6 ± 94.9 /10 min | 223.4 ± 46.5 /10 min | 243.7 ± 40.6 /10 min | 80.69 ± 20.87 min | 4.34 ± 1.26 min | 48.12 ± 22.48 min | 4.09 ± 1.45 min | 54.43 ± 19.81 min | 3.87 ± 2.98 min | 5 | 50** % | 6 | 60** % | 7 | 70** % | Times of activities in 24 h after drug administration/10 min (Kunming mice [1]; 100 mg/kg, n = 10): 301.9 ± 88.6 /10 min |
| COc1cc(C2Oc3c(OC)c(OC)c(OC)c(O)c3C(=O)C2OC)c(OC)c(OC)c1OC (stereo not drawn) [Example 68, 5-hydroxyl-3,6,7,8,3′,4′,5′,6′-octa methoxyl-flavanone] | 287.3 ± 47.9 /10 min | 267.7 ± 40.4 /10 min | 322.9 ± 76.0 /10 min | 248.2 ± 57.4 /10 min | 243.2 ± 54.6 /10 min | 319.6 ± 75.9 /10 min | 128.2 ± 30.9 /10 min | 241.7 ± 40.9 /10 min | 20.69 ± 25.22 min | 5.36 ± 2.23 min | 29.78 ± 28.77 min | 5.09 ± 2.44 min | 64.55 ± 47.91 min | 3.31 ± 1.14 min | 3 | 30% | 4 | 40* % | 6 | 60** % | Times of activities in 24 h after drug administration/10 min (Kunming mice [1]; 100 mg/kg, n = 10): 298.1 ± 80.2 /10 min |
